Test results reported in patent US9822114B2, “Tricyclic oxazolidinone antibiotic compounds” (Idorsia Pharmaceuticals Ltd, priority 2008, dated 2017).
In brackets after ≈: the same amount, converted by molar mass.

Test system: M. catarrhalis A894
Assay: Minimal inhibitory concentration (MIC), microdilution method in cation-adjusted Mueller-Hinton Broth (CLSI M7-A7)
Assay type: cell-based
Conditions: Moraxella catarrhalis, strain A894
Experimental: Minimal inhibitory concentrations (MICs; mg/1) were determined in cation-adjusted Mueller-Hinton Broth by a microdilution method following the description given in “Methods for Dilution Antimicrobial Susceptibility Tests for Bacteria that Grow Aerobically”, Approved standard, 7th ed., Clinical and Laboratory Standards Institute (CLSI) Document M7-A7, Wayne, Pa., USA, 2006.

| SMILES | MIC [µg/mL] |
| --- | --- |
| O=C1CSc2ccc(N3C[C@H](CCCN[C@H]4Cn5c(=O)ccc6cccc4c65)OC3=O)cc2N1 [Example 133, (R)-1-{3-[(S)-2-oxo-3-(3-oxo-3,4-dihydro-2H-benzo[1,4]thiazin-6-yl)-oxazolidin-5-yl]-propylamino}-1,2-dihydro-pyrrolo[3,2,1-ij]quinolin-4-one] | ≤ 0.031 |
| O=C1COc2ccc(N3C[C@H](CCCN[C@H]4Cn5c(=O)ccc6cccc4c65)OC3=O)cc2N1 [Example 134, (R)-1-{3-[(S)-2-oxo-3-(3-oxo-3,4-dihydro-2H-benzo[1,4]oxazin-6-yl)-oxazolidin-5-yl]-propylamino}-1,2-dihydro-pyrrolo[3,2,1-ij]quinolin-4-one] | ≤ 0.031 |
| O=C1COc2ccc(N3C[C@H](CCCN[C@H]4Cn5c(=O)ccc6cccc4c65)OC3=O)nc2N1 [Example 135, (R)-1-{3-[(S)-2-oxo-3-(3-oxo-3,4-dihydro-2H-pyrido[3,2-b][1,4]oxazin-6-yl)-oxazolidin-5-yl]-propylamino}-1,2-dihydro-pyrrolo[3,2,1-ij]quinolin-4-one] | ≤ 0.031 |
| O=C1CSc2ccc(N3C[C@H](CCCN[C@@H]4Cn5c(=O)ccc6cccc4c65)OC3=O)nc2N1 [Example 136, (S)-1-{3-[(S)-2-oxo-3-(3-oxo-3,4-dihydro-2H-pyrido[3,2-b][1,4]thiazin-6-yl)-oxazolidin-5-yl]-propylamino}-1,2-dihydro-pyrrolo[3,2,1-ij]quinolin-4-one] | ≤ 0.031 |
| O=C1CSc2ccc(N3C[C@@H](CCCN[C@@H]4Cn5c(=O)ccc6cccc4c65)OC3=O)nc2N1 [Example 137, (S)-1-{3-[(R)-2-oxo-3-(3-oxo-3,4-dihydro-2H-pyrido[3,2-b][1,4]thiazin-6-yl)-oxazolidin-5-yl]-propylamino}-1,2-dihydro-pyrrolo[3,2,1-ij]quinolin-4-one] | ≤ 0.031 |
| O=C1CSc2ccc(N3C[C@@H](CCCN[C@H]4Cn5c(=O)ccc6ncc(F)c4c65)OC3=O)cc2N1 [Example 138, (R)-3-fluoro-4-{3-[(R)-2-oxo-3-(3-oxo-3,4-dihydro-2H-benzo[1,4]thiazin-6-yl)-oxazolidin-5-yl]-propylamino}-4,5-dihydro-pyrrolo[3,2,1-de][1,5]naphthyridin-7-one] | ≤ 0.031 |
| O=C1CSc2ccc(N3C[C@H](CCCN[C@H]4Cn5c(=O)ccc6ncc(F)c4c65)OC3=O)cc2N1 [Example 139, (R)-3-fluoro-4-{3-[(S)-2-oxo-3-(3-oxo-3,4-dihydro-2H-benzo[1,4]thiazin-6-yl)-oxazolidin-5-yl]-propylamino}-4,5-dihydro-pyrrolo[3,2,1-de][1,5]naphthyridin-7-one] | ≤ 0.031 |
| O=C1COc2ccc(N3C[C@@H](CCCN[C@H]4Cn5c(=O)ccc6ncc(F)c4c65)OC3=O)cc2N1 [Example 140, (R)-3-fluoro-4-{3-[(R)-2-oxo-3-(3-oxo-3,4-dihydro-2H-benzo[1,4]oxazin-6-yl)-oxazolidin-5-yl]-propylamino}-4,5-dihydro-pyrrolo[3,2,1-de][1,5]naphthyridin-7-one] | ≤ 0.031 |
| O=C1COc2ccc(N3C[C@H](CCCN[C@H]4Cn5c(=O)ccc6ncc(F)c4c65)OC3=O)cc2N1 [Example 141, (R)-3-fluoro-4-{3-[(S)-2-oxo-3-(3-oxo-3,4-dihydro-2H-benzo[1,4]oxazin-6-yl)-oxazolidin-5-yl]-propylamino}-4,5-dihydro-pyrrolo[3,2,1-de][1,5]naphthyridin-7-one] | ≤ 0.031 |
| O=C1CSc2ccc(N3C[C@@H](CCCN[C@H]4Cn5c(=O)ccc6ncc(F)c4c65)OC3=O)nc2N1 [Example 142, (R)-3-fluoro-4-{3-[(R)-2-oxo-3-(3-oxo-3,4-dihydro-2H-pyrido[3,2-b][1,4]thiazin-6-yl)-oxazolidin-5-yl]-propylamino}-4,5-dihydro-pyrrolo[3,2,1-de][1,5]naphthyridin-7-one] | ≤ 0.031 |
| O=C1CSc2ccc(N3C[C@H](CCCN[C@H]4Cn5c(=O)ccc6ncc(F)c4c65)OC3=O)nc2N1 [Example 143, (R)-3-fluoro-4-{3-[(S)-2-oxo-3-(3-oxo-3,4-dihydro-2H-pyrido[3,2-b][1,4]thiazin-6-yl)-oxazolidin-5-yl]-propylamino}-4,5-dihydro-pyrrolo[3,2,1-de][1,5]naphthyridin-7-one] | ≤ 0.031 |
| O=C1COc2ccc(N3C[C@H](CCCN[C@H]4Cn5c(=O)ccc6ncc(F)c4c65)OC3=O)nc2N1 [Example 144, (R)-3-fluoro-4-{3-[(S)-2-oxo-3-(3-oxo-3,4-dihydro-2H-pyrido[3,2-b][1,4]oxazin-6-yl)-oxazolidin-5-yl]-propylamino}-4,5-dihydro-pyrrolo[3,2,1-de][1,5]naphthyridin-7-one] | ≤ 0.031 |
| O=C1CSc2ccc(N3C[C@@H](CCCN[C@@H]4Cn5c(=O)ccc6ncc(F)c4c65)OC3=O)cc2N1 [Example 145, (S)-3-fluoro-4-{3-[(R)-2-oxo-3-(3-oxo-3,4-dihydro-2H-benzo[1,4]thiazin-6-yl)-oxazolidin-5-yl]-propylamino}-4,5-dihydro-pyrrolo[3,2,1-de][1,5]naphthyridin-7-one] | ≤ 0.031 |
| O=C1COc2ccc(N3C[C@@H](CCCN[C@@H]4Cn5c(=O)ccc6ncc(F)c4c65)OC3=O)cc2N1 [Example 146, (S)-3-fluoro-4-{3-[(R)-2-oxo-3-(3-oxo-3,4-dihydro-2H-benzo[1,4]oxazin-6-yl)-oxazolidin-5-yl]-propylamino}-4,5-dihydro-pyrrolo[3,2,1-de][1,5]naphthyridin-7-one] | ≤ 0.031 |
| O=C1CSc2ccc(N3C[C@@H](CCCN[C@@H]4Cn5c(=O)ccc6ncc(F)c4c65)OC3=O)nc2N1 [Example 147, (S)-3-fluoro-4-{3-[(R)-2-oxo-3-(3-oxo-3,4-dihydro-2H-pyrido[3,2-b][1,4]thiazin-6-yl)-oxazolidin-5-yl]-propylamino}-4,5-dihydro-pyrrolo[3,2,1-de][1,5]naphthyridin-7-one] | ≤ 0.031 |
| O=C1CSc2ccc(N3C[C@H](CCCN[C@@H]4Cn5c(=O)ccc6ncc(F)c4c65)OC3=O)cc2N1 [Example 148, (S)-3-fluoro-4-{3-[(S)-2-oxo-3-(3-oxo-3,4-dihydro-2H-benzo[1,4]thiazin-6-yl)-oxazolidin-5-yl]-propylamino}-4,5-dihydro-pyrrolo[3,2,1-de][1,5]naphthyridin-7-one] | ≤ 0.031 |
| O=C1COc2ccc(N3C[C@H](CCCN[C@@H]4Cn5c(=O)ccc6ncc(F)c4c65)OC3=O)cc2N1 [Example 149, (S)-3-fluoro-4-{3-[(S)-2-oxo-3-(3-oxo-3,4-dihydro-2H-benzo[1,4]oxazin-6-yl)-oxazolidin-5-yl]-propylamino}-4,5-dihydro-pyrrolo[3,2,1-de][1,5]naphthyridin-7-one] | ≤ 0.031 |
| O=C1CSc2ccc(N3C[C@H](CCCN[C@@H]4Cn5c(=O)ccc6ncc(F)c4c65)OC3=O)nc2N1 [Example 150, (S)-3-fluoro-4-{3-[(S)-2-oxo-3-(3-oxo-3,4-dihydro-2H-pyrido[3,2-b][1,4]thiazin-6-yl)-oxazolidin-5-yl]-propylamino}-4,5-dihydro-pyrrolo[3,2,1-de][1,5]naphthyridin-7-one] | ≤ 0.031 |
| O=C1COc2ccc(N3C[C@H](CCCN[C@@H]4Cn5c(=O)ccc6ncc(F)c4c65)OC3=O)nc2N1 [Example 151, (S)-3-fluoro-4-{3-[(S)-2-oxo-3-(3-oxo-3,4-dihydro-2H-pyrido[3,2-b][1,4]oxazin-6-yl)-oxazolidin-5-yl]-propylamino}-4,5-dihydro-pyrrolo[3,2,1-de][1,5]naphthyridin-7-one] | ≤ 0.031 |
| O=C1COc2ccc(N3C[C@H](CCN[C@H]4Cn5c(=O)ccc6cccc4c65)OC3=O)cc2N1 [Example 157, (R)-1-{2-[(S)-2-oxo-3-(3-oxo-3,4-dihydro-2H-benzo[1,4]oxazin-6-yl)-oxazolidin-5-yl]-ethylamino}-1,2-dihydro-pyrrolo[3,2,1-ij]quinolin-4-one] | 2 (≈ 4.48 µM) |
| O=C1CSc2ccc(N3C[C@@H](CCN[C@H]4Cn5c(=O)ccc6cccc4c65)OC3=O)cc2N1 [Example 158, (R)-1-{2-[(R)-2-oxo-3-(3-oxo-3,4-dihydro-2H-benzo[1,4]thiazin-6-yl)-oxazolidin-5-yl]-ethylamino}-1,2-dihydro-pyrrolo[3,2,1-ij]quinolin-4-one] | ≤ 0.031 |
| O=C1CSc2ccc(N3C[C@H](CCCN[C@@H]4CN5C(=O)CNc6ccc(F)c4c65)OC3=O)cc2N1 [Example 160, (S)-7-fluoro-6-{3-[(S)-2-oxo-3-(3-oxo-3,4-dihydro-2H-benzo[1,4]thiazin-6-yl)-oxazolidin-5-yl]-propylamino}-1,2,5,6-tetrahydro-pyrrolo[1,2,3-de]quinoxalin-3-one] | ≤ 0.031 |
| O=C1CSc2ccc(N3C[C@@H](CCCN[C@H]4CN5C(=O)CNc6ccc(F)c4c65)OC3=O)nc2N1 [Example 171, (R)-7-fluoro-6-{3-[(R)-2-oxo-3-(3-oxo-3,4-dihydro-2H-pyrido[3,2-b][1,4]thiazin-6-yl)-oxazolidin-5-yl]-propylamino}-1,2,5,6-tetrahydro-pyrrolo[1,2,3-de]quinoxalin-3-one] | ≤ 0.031 |
| O=C1CSc2ccc(N3C[C@H](CCNC[C@]4(O)Cn5c(=O)ccc6nccc4c65)OC3=O)cc2N1 [Example 173, (S)-4-hydroxy-4-({2-[(S)-2-oxo-3-(3-oxo-3,4-dihydro-2H-benzo[1,4]thiazin-6-yl)-oxazolidin-5-yl]-ethylamino}-methyl)-4,5-dihydro-pyrrolo[3,2,1-de][1,5]naphthyridin-7-one] | 0.125 (≈ 0.253 µM) |
| O=C1COc2ccc(N3C[C@H](CCCN[C@@H]4Cn5c(=O)ccc6ccc(F)c4c65)OC3=O)nc2N1 [Example 189, (S)-9-fluoro-1-{3-[(S)-2-oxo-3-(3-oxo-3,4-dihydro-2H-pyrido[3,2-b][1,4]oxazin-6-yl)-oxazolidin-5-yl]-propylamino}-1,2-dihydro-pyrrolo[3,2,1-ij]quinolin-4-one] | ≤ 0.031 |
| O=C1COc2ccc(N3C[C@@H](CCCN[C@@H]4Cn5c(=O)ccc6ccc(F)c4c65)OC3=O)nc2N1 [Example 190, (S)-9-fluoro-1-{3-[(R)-2-oxo-3-(3-oxo-3,4-dihydro-2H-pyrido[3,2-b][1,4]oxazin-6-yl)-oxazolidin-5-yl]-propylamino}-1,2-dihydro-pyrrolo[3,2,1-ij]quinolin-4-one] | ≤ 0.031 |
